In the oligonucleotide strings, read from the 5' end, every base follows the letter of its sugar. An asterisk marks phosphorothioate; unmarked linkages are phosphodiester. Other units and linkages are bracketed, terminal groups are in braces. A string of capitals states the bases alone. d = 2'-deoxy (DNA); m = 2'-O-methyl

What all share (assay type): cell-based
For one data set, the target named is T1, TLR8 (Homo sapiens, UniProt Q9NR97).
T1 sequence (Q9NR97 27-1041): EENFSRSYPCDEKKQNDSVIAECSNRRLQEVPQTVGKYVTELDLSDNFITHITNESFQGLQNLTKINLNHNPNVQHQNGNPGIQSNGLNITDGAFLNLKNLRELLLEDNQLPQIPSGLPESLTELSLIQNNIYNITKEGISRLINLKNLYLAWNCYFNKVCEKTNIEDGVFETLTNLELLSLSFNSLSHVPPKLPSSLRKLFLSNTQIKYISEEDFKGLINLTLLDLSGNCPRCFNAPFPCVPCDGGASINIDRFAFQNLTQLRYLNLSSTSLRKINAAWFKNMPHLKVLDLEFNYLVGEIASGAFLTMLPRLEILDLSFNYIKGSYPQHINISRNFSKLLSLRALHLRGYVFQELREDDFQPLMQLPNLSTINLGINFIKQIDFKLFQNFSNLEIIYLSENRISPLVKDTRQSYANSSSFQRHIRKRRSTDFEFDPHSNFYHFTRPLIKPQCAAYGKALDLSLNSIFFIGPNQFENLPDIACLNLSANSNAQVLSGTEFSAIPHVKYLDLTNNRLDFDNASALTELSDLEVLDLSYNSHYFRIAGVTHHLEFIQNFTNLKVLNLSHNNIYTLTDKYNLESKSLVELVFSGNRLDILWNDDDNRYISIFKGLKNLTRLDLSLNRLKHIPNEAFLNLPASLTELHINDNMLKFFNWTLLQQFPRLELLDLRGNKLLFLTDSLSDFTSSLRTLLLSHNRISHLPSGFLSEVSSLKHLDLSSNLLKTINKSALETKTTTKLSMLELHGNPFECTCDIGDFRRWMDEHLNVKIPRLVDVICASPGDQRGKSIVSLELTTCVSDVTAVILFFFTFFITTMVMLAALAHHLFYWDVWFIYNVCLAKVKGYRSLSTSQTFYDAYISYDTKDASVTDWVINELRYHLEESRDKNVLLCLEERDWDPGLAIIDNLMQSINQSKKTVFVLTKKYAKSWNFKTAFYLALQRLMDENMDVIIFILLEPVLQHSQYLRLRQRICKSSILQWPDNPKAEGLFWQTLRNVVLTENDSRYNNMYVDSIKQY
The experiment in a line: HEK-TLR8 NF-κB-luciferase reporter, R848 or Motolimod stimulation (potentiation or inhibition). Set-up: expressed in transfected cells; host or cells: 293XLhTLR8 (HEK293). As to conditions: HEK-TLR8; 500 nM ASO ~30 min; R848 overnight. As for the experimental part: (§1) In such examples, potentiation of TLR8 activity can be identified by observation of an overall increased TLR8 response of the cell population, or a higher proportion of cells having TLR8-positive activity as compared to a negative control condition in which cells are treated with TLR8 agonist in the absence of the oligonucleotide (or in the presence of an appropriate control non-potentiating agent). In one example, 293XLhTLR8 (referred to as HEK-TLR8) cells are transfected with pNF-κB-Luc4 reporter, incubated with an oligonucleotide, and then stimulated with R848. TLR8 activity can be determined by a luciferase assay, which measures activated NF-κB by luminescence. TLR8 activity can also be analysed by measuring cytokine levels, for example by ELISA.
as §1, with “inhibition” for “potentiation”, “decreased” for “increased”, “lower” for “higher”, “positive” for “negative”, “inhibitory” for “non-potentiating”
(§2) For cGAS stimulations, cells were treated for indicated duration with ASOs, prior to transfection with ISD70 (human cells) or ISD45 (mouse cells) (the ASOs were not washed off prior to ISD transfection unless otherwise indicated). The cGAS ligands ISD45 (Stetson and Medzhitov, 2006) and ISD70 (also known as VACV-70 (Unterholzner et al., 2010)) (Table 1) were resuspended as follows: 5 1d of sense and 5 μl of antisense strands at 10 μg/μl were added to 90 μl PBS under sterile conditions, heated at 75° C. for 30 min, prior to letting cool down at room temperature and aliquoting (stock at 1 μg/1 l). The ISDs were transfected at a concentration of […] at a ratio of 1 μg:1 μl with Lipofectamine 2000 in Opti-MEM (Thermo Fisher Scientific). HEK-TLR3, HEK-TLR7 and […] were treated with indicated concentration of ASOs for 20-50 min, prior to stimulation with poly(I:C) (Invivogen), R848 (Invivogen), Motolimod (MedChemExpress) and the Class B CpG oligonucleotides ODN 2006 (synthesised by IDT and resuspended in RNase-free TE buffer [Table 1]), respectively. The TLR2/1 agonist PAM3CSK4 (Invivogen), the TLR4 agonist lipopolysaccharide (Invivogen), the Class B CpG oligonucleotides ODN 1826 (synthesised by IDT and resuspended in RNase-free TE buffer), the mouse Sting agonist DMXAA (Cayman) and the human STING agonist (compound #3 from (Raanjulu et al., 2018), referred to as GSK herein—kind gift from Cancer Therapeutics CRC, Australia) were used at indicated concentrations. Aspirin (Sigma—A2093) was resuspended in pure medium to 10 mM, filter sterilised and added to the cells at 2 mM final. All ASOs were synthesised by Integrated DNA Technologies (IDT), and resuspended in RNase-free TE buffer, pH 8.0 (Thermo Fisher Scientific). Cell viability was assessed by adding 1× fresh resazurin solution to the wells (10λ solution made up with 7 mg resazurin [Sigma—R7017] dissolved in 3.5 ml PBS, sterile filtered at […]) for 4 h, prior to reading at with a Fluostar OPTIMA (BMG LABTECH) plate-reader (fluorescence: Excitation 535 nm, Emission 590); wells with medium only and 1× resazurin were used as blanks.
On the technique in general: Reporter assays use an easily measured gene product as a stand-in for the process of interest.

Another data set addresses cGAS (Homo sapiens, UniProt Q8N884). Briefly: ISD70-driven IP-10 (and IFN-β) production in THP-1 cells, ELISA. Set-up: endogenous in cells; host or cells: THP-1 (undifferentiated). The following applies: THP-1; 2′OMe or PS oligos, 100-250 nM, pre-treatment as in figure legends; ISD70 2.5 μg/ml. As for the experimental part: The ability of an oligonucleotide to inhibit cGAS activity can, for example, be analysed by incubating cells which express cGAS with an oligonucleotide, then stimulating said cells with a cGAS agonist (e.g., 70-bp interferon stimulating DNA or ISD70; 45-bp interferon stimulating DNA or ISD45), and analysing the overall cGAS response in the cell population, or analysing the proportion of cells having cGAS-positive activity after a defined period of time.
In such examples, inhibition of cGAS activity can be identified by observation of an overall decreased cGAS response of the cell population, or a lower proportion of cells having cGAS-positive activity as compared to positive control condition in which cells are treated with cGAS agonist in the absence of the oligonucleotide (or in the presence of an appropriate control inhibitory agent). In one example, THP-1 or HT-29 cells are transfected with ISD70 and incubated with an oligonucleotide. cGAS activity can then be determined by cytokine (e.g., IP-10 and/or IFNβ) expression (e.g., gene and/or protein expression) and/or secretion levels, such as by ELISA. A similar assay can be performed with LL171 cells transfected with ISD45. […] By way of example, cGAS enzymatic activity may be assessed in vitro using recombinant cGAS and then measuring activity thereof by way of a cGAMP ELISA.
as §2

The target in the next data set is T2, human TLR9 (Homo sapiens, UniProt Q9NR96).
T2 construct: HA; host or cells: 293XL-hTLR9-HA (HEK293)
T2 sequence (Q9NR96 26-1032): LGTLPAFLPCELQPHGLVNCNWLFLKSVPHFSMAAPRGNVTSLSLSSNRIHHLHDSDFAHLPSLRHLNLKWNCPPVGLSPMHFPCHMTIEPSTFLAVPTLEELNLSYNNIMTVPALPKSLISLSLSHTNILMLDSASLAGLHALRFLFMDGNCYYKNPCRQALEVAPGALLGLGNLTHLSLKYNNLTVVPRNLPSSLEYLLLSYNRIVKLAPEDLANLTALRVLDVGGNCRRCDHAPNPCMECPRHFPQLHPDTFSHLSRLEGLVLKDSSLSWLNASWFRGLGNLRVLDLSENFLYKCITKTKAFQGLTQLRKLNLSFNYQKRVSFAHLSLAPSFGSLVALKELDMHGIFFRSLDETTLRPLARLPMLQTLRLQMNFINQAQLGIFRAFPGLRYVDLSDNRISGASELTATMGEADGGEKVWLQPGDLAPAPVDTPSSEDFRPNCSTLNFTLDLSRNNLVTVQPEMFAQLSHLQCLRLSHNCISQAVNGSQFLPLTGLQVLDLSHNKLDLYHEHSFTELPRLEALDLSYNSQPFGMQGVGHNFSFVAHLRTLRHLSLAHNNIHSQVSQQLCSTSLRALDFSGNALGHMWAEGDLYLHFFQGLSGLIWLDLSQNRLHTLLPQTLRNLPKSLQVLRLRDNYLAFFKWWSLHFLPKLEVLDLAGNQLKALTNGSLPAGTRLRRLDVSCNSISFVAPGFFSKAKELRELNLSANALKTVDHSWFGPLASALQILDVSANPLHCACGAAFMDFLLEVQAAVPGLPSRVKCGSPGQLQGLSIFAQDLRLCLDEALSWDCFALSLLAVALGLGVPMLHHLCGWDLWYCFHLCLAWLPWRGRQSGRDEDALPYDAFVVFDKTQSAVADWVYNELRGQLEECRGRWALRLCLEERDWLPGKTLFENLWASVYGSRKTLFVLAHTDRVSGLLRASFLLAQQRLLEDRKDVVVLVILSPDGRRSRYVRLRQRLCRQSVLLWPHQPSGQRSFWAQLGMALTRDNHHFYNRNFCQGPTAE
Briefly: HEK-TLR9 NF-κB-luciferase reporter, ODN2006 stimulation. The following applies: HEK-TLR9; 500 nM 2′OMe or PS oligos; 200 nM ODN2006. On the procedure: In such examples, inhibition of TLR9 activity can be identified by observation of an overall decreased TLR9 response of the cell population, or a lower proportion of cells having TLR9-positive activity as compared to positive control condition in which cells are treated with TLR9 agonist in the absence of the oligonucleotide (or in the presence of an appropriate control inhibitory agent). In one example, HEK cells are transfected with TLR9 and a NF-κB reporter and incubated with an oligonucleotide and then stimulated with a TLR9 agonist. TLR9 activity can then be determined by a luciferase assay. TLR9 activity can also be analysed by measuring cytokine levels (e.g., IFN, IL-6, TNF and IL-12), for example by ELISA.
as §2
Following transfection, the cells were collected from the 6-wells and aliquoted into 96-wells, just before ASO and overnight TLR stimulation (as above described). Similarly, the LL171 cells expressing and ISRE-Luc reporter were treated overnight. The next day, the cells were lysed in 40 μl (for a 96-well plate) of 1× Glo Lysis buffer (Promega) for 10 min at room temperature. […] was then subjected to firefly luciferase assay using 40 μl of Luciferase Assay Reagent (Promega). Luminescence was quantified with a Fluostar OPTIMA (BMG LABTECH) luminometer.

Chain of cGAS (Q8N884 whole entry): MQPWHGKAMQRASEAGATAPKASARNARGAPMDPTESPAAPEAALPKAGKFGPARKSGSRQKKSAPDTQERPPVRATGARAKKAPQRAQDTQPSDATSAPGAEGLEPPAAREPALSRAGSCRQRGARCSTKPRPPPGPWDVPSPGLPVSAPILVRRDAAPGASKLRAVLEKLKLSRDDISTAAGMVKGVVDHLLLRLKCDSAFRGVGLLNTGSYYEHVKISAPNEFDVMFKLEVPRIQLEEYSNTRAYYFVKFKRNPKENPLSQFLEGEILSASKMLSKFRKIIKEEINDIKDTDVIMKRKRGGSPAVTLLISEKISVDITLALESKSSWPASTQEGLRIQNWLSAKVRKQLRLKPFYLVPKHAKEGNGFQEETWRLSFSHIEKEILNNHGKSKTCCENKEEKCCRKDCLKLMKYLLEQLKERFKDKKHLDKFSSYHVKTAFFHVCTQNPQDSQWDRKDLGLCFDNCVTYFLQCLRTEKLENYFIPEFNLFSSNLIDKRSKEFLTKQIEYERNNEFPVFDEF

As for “mC*mU*mU*mC*mG*T*G*G*G*G*T*C*C*T*T*mU*mU*mC*mA*mC (CUUCGTGGGGTCCTTUUCAC; antisense; sugars from the 5' end m5 d10 m5, all phosphorothioate, methylation of C not given here) [[HPRT]660]”, in the data set with TLR8, the “TLR8 potentiation of R848 sensing, 20-mer ASOs (in words)” value was “strong potentiator of TLR8 sensing”.
For “mGmCmGmGmUmAmUmCmCmAmUmGmUmCmCmCmAmGmGmC (GCGGUAUCCAUGUCCCAGGC; all 2'-O-methyl, backbone not given here) [fully 2′Ome modified version of C2Mut1]”, in the data set with cGAS, the “inhibition of ISD70-driven IP-10 production (in words)” value is recorded as “strongly blunting of cGAS activation”.
As for “mG*mG*mU*mG*mG*T*C*C*A*C*A*A*C*C*C*mC*mU*mU*mU*mC (mG*mG*mU*mG*mG*dT*dC*dC*dA*dC*dA*dA*dC*dC*dC*mC*mU*mU*mU*mC; antisense) [ASO7]”, the “inhibition of TLR9 sensing of ODN2006 (in words)” value with human TLR9 is “significantly inhibited TLR9 sensing of ODN2006”.
“mG*mC*mG*mG*mU*A*T*C*C*A*T*C*A*G*A*mU*mA*mU*mC*mG (mG*mC*mG*mG*mU*dA*dT*dC*dC*dA*dT*dC*dA*dG*dA*mU*mA*mU*mC*mG; antisense) [C2-ASO2-B]”: the “inhibition of ISD70-driven IP-10 production (in words)” value with cGAS is given as “significantly less inhibitory than C2-ASO2-A”.
Take “mU*mU*mC*mU*mG*G*G*G*A*C*T*T*C*C*A*mG*mU*mU*mU*mA (mU*mU*mC*mU*mG*dG*dG*dG*dA*dC*dT*dT*dC*dC*dA*mG*mU*mU*mU*mA; antisense) [ASO9]”: the “inhibition of TLR9 sensing of ODN2006 (in words)” value with human TLR9 is “significantly inhibited TLR9 sensing of ODN2006”.

Source of the values: patent publication US20240384268A1, “Oligonucleotides” (Hudson Institute of Medical Research, priority 2021, published 2024).
